For the first assay, the target named is MDM2-p53 interaction (in vitro translated MDM2) (Homo sapiens (Human), UniProt Q00987). Description: MDM2-p53 interaction 96-well plate binding assay (ELISA).
Chain of MDM2-p53 interaction (in vitro translated MDM2) (Q00987 whole entry): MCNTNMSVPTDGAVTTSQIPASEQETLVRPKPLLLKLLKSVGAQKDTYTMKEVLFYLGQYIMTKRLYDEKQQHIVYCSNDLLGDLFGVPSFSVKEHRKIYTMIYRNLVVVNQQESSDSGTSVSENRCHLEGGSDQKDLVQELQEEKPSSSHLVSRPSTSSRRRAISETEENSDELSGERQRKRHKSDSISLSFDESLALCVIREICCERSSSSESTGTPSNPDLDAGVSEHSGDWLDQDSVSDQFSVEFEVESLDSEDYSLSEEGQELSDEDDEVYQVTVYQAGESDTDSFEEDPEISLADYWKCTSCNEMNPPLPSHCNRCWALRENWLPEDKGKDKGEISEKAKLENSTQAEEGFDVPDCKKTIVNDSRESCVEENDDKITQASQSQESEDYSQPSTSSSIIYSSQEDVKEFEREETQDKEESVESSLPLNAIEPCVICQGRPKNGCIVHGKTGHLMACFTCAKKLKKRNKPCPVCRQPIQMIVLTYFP
Details: not given
Consider “6-{[(1R)-1-(4-chlorophenyl)-7-fluoro-5-[1-hydroxy-1-(1-methyl-1H-pyrazol-4-yl)propyl]-3-oxo-1-[(3S)-oxolan-3-yloxy]-2,3-dihydro-1H-isoindol-2-yl]methyl}pyridine-3-carbonitrile [Example 358]”, for which the “MDM2 % at concentration” value is 74%@0.0010.

Staying with this assay, now noted: at 0.0010 μM.
Regarding “2-[(5-chloro-3-hydroxypyridin-2-yl)methyl]-3-(4-chlorophenyl)-4-fluoro-6-[(1S)-1-hydroxy-1-(1-methylpiperidin-4-yl)propyl]-3-[(3S)-oxolan-3-yloxy]-2,3-dihydro-1H-isoindol-1-one [Example 568]”, the “MDM2 % inhibition at 0.0010” value came to 76%@0.0010.
Still for that read-out and setting: the same measure for “2-{[(1R)-1-(4-chlorophenyl)-7-fluoro-5-[(1R)-1-(4-fluorooxan-4-yl)-1-hydroxypropyl]-3-oxo-1-[cis-3-hydroxycyclobutoxy]-2,3-dihydro-1H-isoindol-2-yl]methyl}pyrimidine-5-carbonitrile [Example 505]”: 60%@0.0010; for “(3R)-3-(4-chlorophenyl)-2-[(5-chloropyrimidin-2-yl)methyl]-4-fluoro-6-{1-hydroxy-1-[trans-4-hydroxycyclohexyl]propyl}-3-methoxy-2,3-dihydro-1H-isoindol-1-one [Example 511]”: 72%@0.0010; for “(3R)-3-(4-chlorophenyl)-2-[(5-chloropyrimidin-2-yl)methyl]-4-fluoro-6-[(1S)-1-hydroxy-1-(1-methylpiperidin-4-yl)propyl]-3-[cis-3-hydroxycyclobutoxy]-2,3-dihydro-1H-isoindol-1-one [Example 560]”: 30%@0.0010.
With “1-({[(1R)-1-(4-chlorophenyl)-2-[(5-chloropyrimidin-2-yl)methyl]-7-fluoro-5-[1-(4-fluoropiperidin-4-yl)-1-hydroxypropyl]-3-oxo-2,3-dihydro-1H-isoindol-1-yl]oxy}methyl)cyclopropane-1-carbonitrile [Example 545]”, the “MDM2 % inhibition at 0.0010” value is 94%@0.0010.
For the compound “2-{[(1R)-1-(4-chlorophenyl)-7-fluoro-5-{1-hydroxy-1-[trans-4-hydroxycyclohexyl]propyl}-3-oxo-1-[(3S)-oxolan-3-yloxy]-2,3-dihydro-1H-isoindol-2-yl]methyl}pyrimidine-5-carbonitrile [Example 503]”, the “MDM2 % inhibition at 0.0010” value is 87%@0.0010.
On to “6-{[(1R)-1-(4-chlorophenyl)-7-fluoro-5-[1-(4-fluoropiperidin-4-yl)-1-hydroxypropyl]-3-oxo-1-[(3S)-oxolan-3-yloxy]-2,3-dihydro-1H-isoindol-2-yl]methyl}pyridine-3-carbonitrile [Example 546]”, for which the “MDM2 % inhibition at 0.0010” value stood at 86%@0.0010.
Regarding “1-({[(1R)-1-(4-chlorophenyl)-2-[(5-chloropyrimidin-2-yl)methyl]-7-fluoro-5-[2-hydroxy-1-(piperazin-1-yl)butan-2-yl]-3-oxo-2,3-dihydro-1H-isoindol-1-yl]oxy}methyl)cyclopropane-1-carbonitrile [Example 536]”, the “MDM2 % inhibition at 0.0010” value stood at 64%@0.0010.
Take “(3R)-3-(4-chlorophenyl)-2-[(5-chloropyridin-2-yl)methyl]-4-fluoro-6-[1-(4-fluoropiperidin-4-yl)-1-hydroxypropyl]-3-[(2R)-2-hydroxypropoxy]-2,3-dihydro-1H-isoindol-1-one [Example 549]”: the “MDM2 % inhibition at 0.0010” value is reported as 85%@0.0010.

The assay is the same for the next values; noted with them: at 0.010 μM.
Turning to “(3R)-3-(4-chlorophenyl)-4-fluoro-6-[1-hydroxy-1-(1-methyl-1H-pyrazol-4-yl)ethyl]-3-[(1-hydroxycyclopropyl)methoxy]-2-[(5-methoxypyridin-2-yl)methyl]-2,3-dihydro-1H-isoindol-1-one [Example 228]”, the “MDM2 % at concentration” value is given as 61%@0.010.

Staying with this assay, now noted: at 0.030 μM.
With “(3R)-3-(4-Chlorophenyl)-2-[(1R)-1-(5-chloropyridin-2-yl)-2,3-dihydroxypropyl]-4-fluoro-3-[(1-hydroxycyclopropyl)methoxy]-6-(2-hydroxypropan-2-yl)-2,3-dihydro-1H-isoindol-1-one [Example 331]”, the “MDM2 % at concentration” value was 49%@0.030.

The assay is the same for the next values; noted with them: at 0.10 μM.
With “(3R)-3-(4-chlorophenyl)-2-[(5-chloropyrimidin-2-yl)methyl]-4-fluoro-6-[(1R)-1-hydroxy-1-(1-methylpiperidin-4-yl)propyl]-3-[(3S)-oxolan-3-yloxy]-2,3-dihydro-1H-isoindol-1-one [Example 567]”, the “MDM2 % inhibition at 0.10” value was 57%@0.10.
The same measure, in the same setting: to “2-{[(1R)-1-(4-chlorophenyl)-1-[(1-cyanocyclopropyl)methoxy]-7-fluoro-5-[1-hydroxy-1-(1-methyl-1H-imidazol-4-yl)propyl]-3-oxo-2,3-dihydro-1H-isoindol-2-yl]methyl}pyrimidine-5-carbonitrile [Example 463]” belongs 73%@0.10.
In the case of “6-{[(1R)-1-(4-chlorophenyl)-7-fluoro-5-[1-hydroxy-1-(1-methyl-1H-imidazol-4-yl)butyl]-3-oxo-1-[(3S)-oxolan-3-yloxy]-2,3-dihydro-1H-isoindol-2-yl]methyl}pyridine-3-carbonitrile [Example 473]”, the “MDM2 % inhibition at 0.10” value is given as 44%@0.10.
Regarding “(3R)-2-[(5-chloro-3-hydroxypyridin-2-yl)methyl]-3-(4-chlorophenyl)-4-fluoro-6-[1-hydroxy-1-(1-methyl-1H-imidazol-4-yl)propyl]-3-[cis-3-hydroxycyclobutoxy]-2,3-dihydro-1H-isoindol-1-one [Example 488]”, the “MDM2 % inhibition at 0.10” value stood at 56%@0.10.

The test system of another assay is SJSA-1. Description: Protocol B: CellTiter-Glo cell viability assay. Particulars: read-out: SJSA1 IC50 (μM) (Protocol B); Protocol B.
Regarding “(3R)-2-[(5-chloro-1-oxo-1λ^5-pyridin-2-yl)methyl]-3-(4-chlorophenyl)-4-fluoro-6-[1-hydroxy-1-(1-methyl-1H-pyrazol-4-yl)ethyl]-3-[(1-hydroxycyclopropyl)methoxy]-2,3-dihydro-1H-isoindol-1-one [Example 409]”, the half-inhibitory concentration (IC50) came to 0.41 µM.
Turning to “6-{[(1R)-1-(4-chlorophenyl)-1-[(1-cyanocyclopropyl)methoxy]-7-fluoro-5-[1-hydroxy-1-(1-methyl-1H-pyrazol-4-yl)ethyl]-3-oxo-2,3-dihydro-1H-isoindol-2-yl]methyl}pyridine-3-carbonitrile [Example 211]”, the IC50 is 0.36 µM.
As for “1-({[(1R)-1-(4-chlorophenyl)-2-[(5-chloropyrimidin-2-yl)methyl]-7-fluoro-5-[1-hydroxy-1-(1-methyl-1H-pyrazol-4-yl)ethyl]-3-oxo-2,3-dihydro-1H-isoindol-1-yl]oxy}methyl)cyclopropane-1-carboxamide [Example 214]”, the IC50 was found to be 0.22 µM.
As for “(3R)-3-(4-chlorophenyl)-2-[(5-chloropyrimidin-2-yl)methyl]-4-fluoro-6-{1-hydroxy-1-[trans-4-hydroxycyclohexyl}-3-[cis-3-hydroxycyclobutoxy]-2,3-dihydro-1H-isoindol-1-one: *fast eluting isomer [Example 496]”, the IC50 came to 1.8 µM.
Same read-out and setting: to `[2H]C([2H])([2H])C1(C([2H])([2H])O[C@]2(c3ccc(Cl)cc3)c3c(F)cc(C(O)(CC)c4cn(C)cn4)cc3C(=O)N2Cc2ccc(C#N)cn2)CC1` (stereo partly drawn) [Example 439, 6-{[(1R)-1-(4-chlorophenyl)-7-fluoro-1-({1-[hydroxy(^2H2)methyl]cyclopropyl}(^2H2)methoxy)-5-[1-hydroxy-1-(1-methyl-1H-imidazol-4-yl)propyl]-3-oxo-2,3-dihydro-1H-isoindol-2-yl]methyl}pyridine-3-carbonitrile] belongs 0.03 µM; to “2-{[(1R)-1-(4-chlorophenyl)-7-fluoro-5-[1-hydroxy-1-(1-methyl-1H-imidazol-4-yl)propyl]-3-oxo-1-{[trans-3-hydroxycyclobutyl]methoxy}-2,3-dihydro-1H-isoindol-2-yl]methyl}pyrimidine-5-carbonitrile [Example 484]”, 4.9 µM.
For the compound `CCC(O)(c1cc(F)c2c(c1)C(=O)N(Cc1ncc(C#N)cn1)[C@@]2(O[C@H]1CCOC1)c1ccc(Cl)cc1)c1cn(C)cn1` (stereo partly drawn) [Example 369, 2-{[(1R)-1-(4-chlorophenyl)-7-fluoro-5-[1-hydroxy-1-(1-methyl-1H-imidazol-4-yl)propyl]-3-oxo-1-[(3S)-oxolan-3-yloxy]-2,3-dihydro-1H-isoindol-2-yl]methyl}pyrimidine-5-carbonitrile], the IC50 came to 0.062 µM.
Regarding “6-{[1-(4-chlorophenyl)-7-fluoro-5-[1-hydroxy-1-(1-methyl-1H-pyrazol-4-yl)ethyl]-3-oxo-1-[cis-3-hydroxycyclobutoxy]-2,3-dihydro-1H-isoindol-2-yl]methyl}pyridine-3-carbonitrile [Example 356]”, the half-maximal inhibitory concentration (IC50) is 0.96 µM.
Take “6-{[1-(4-chlorophenyl)-7-fluoro-5-[1-hydroxy-1-(1-methyl-1H-pyrazol-4-yl)ethyl]-3-oxo-1-[cis-3-hydroxycyclobutoxy]-2,3-dihydro-1H-isoindol-2-yl]methyl}pyridine-3-carbonitrile [Example 355]”: the IC50 came out at 4.7 µM.

Still in this assay, the particulars now being: read-out: SJSA1 IC50 (μM) (Protocol B); SJSA-1, CellTiter-Glo, 72 hrs.
Consider “(3S)-3-(4-chlorophenyl)-3-[(1R)-1-(4-chlorophenyl)-7-fluoro-5-[1-hydroxy-1-(oxan-4-yl)ethyl]-1-methoxy-3-oxo-2,3-dihydro-1H-isoindol-2-yl]propanoic acid [Example 88]”, for which the half-maximal inhibitory concentration (IC50) turned out to be 0.23 µM.
Regarding “4-{[(1R)-1-(4-chlorophenyl)-7-fluoro-5-[1-hydroxy-1-(1-methyl-1H-imidazol-4-yl)propyl]-3-oxo-1-[(3S)-oxolan-3-yloxy]-2,3-dihydro-1H-isoindol-2-yl]methyl}-3-(hydroxymethyl)benzonitrile [Example 92]”, the IC50 is 0.084 µM.
With “1-({[(1R)-2-[(4-chloro-2-methanesulfonylphenyl)methyl]-1-(4-chlorophenyl)-7-fluoro-5-[1-hydroxy-1-(1-methyl-1H-pyrazol-4-yl)ethyl]-3-oxo-2,3-dihydro-1H-isoindol-1-yl]oxy}methyl)cyclopropane-1-carboxamide [Example 74]”, the IC50 came to 1 µM.

These data come from US20230338337A1, “BIOMARKERS FOR CANCER THERAPY USING MDM2 ANTAGONISTS” (OTSUKA PHARMACEUTICAL CO., LTD., priority 2019, published 2023).
